Laboratory results reported in the NIST ThermoML archive (doi:10.1021/acs.jced.7b00604).

How the values were obtained:
[1] = 100 kPa, Liquid; for speed of sound: Frequency=3 MHz, Sing-around technique in a fixed-path interferometer; for mass density: Vibrating tube method
[2] = molar heat capacity at constant pressure; conditions: 100 kPa, Liquid, Extra sensitive DSC
[3] = xn = mol fraction of the nth substance listed; conditions: 100 kPa, Liquid, x1 = 1; for speed of sound: Frequency=3 MHz, Sing-around technique in a fixed-path interferometer; for mass density: Vibrating tube method

CCCC[n+]1ccn(C)c1.O=S(=O)([N-]S(=O)(=O)C(F)(F)F)C(F)(F)F
Conditions | mass density, [1] [kg/m3] | molar heat capacity at constant pressure, [2] [J/K/mol] | speed of sound, [1] [m/s]
298.15 K | 1437.12 | 567.22 | 1227.8
303.15 K | 1432.51 | 569.85 | 1216.7
308.15 K | 1427.43 | 572.64 | 1205.8
313.15 K | 1422.86 | 575.47 | 1194.9
318.15 K | 1417.91 | 578.38 | 1184.2
323.15 K | 1413.58 | 581.52 | 1173.6

CCCC[n+]1ccn(C)c1.O=S(=O)([N-]S(=O)(=O)C(F)(F)F)C(F)(F)F + COCCO
[3]
Conditions | mass density [kg/m3] | speed of sound [m/s]
298.15 K | 1437.12 | 1227.8
303.15 K | 1432.51 | 1216.7
308.15 K | 1427.43 | 1205.8
313.15 K | 1422.86 | 1194.9
318.15 K | 1417.91 | 1184.2
323.15 K | 1413.58 | 1173.6

COCCO [2-methoxyethan-1-ol]
Conditions | mass density, [1] [kg/m3] | molar heat capacity at constant pressure, [2] [J/K/mol] | speed of sound, [1] [m/s]
298.15 K | 960.31 | 175.32 | 1341.8
303.15 K | 955.71 | 176.9 | 1324.1
308.15 K | 951.08 | 178.41 | 1307.3
313.15 K | 946.41 | 179.96 | 1292
318.15 K | 941.72 | 181.45 | 1274.2
323.15 K | 936.99 | 183.02 | 1259.4
